Experimental data from paper PMC2667214, “End-Tagging of Ultra-Short Antimicrobial Peptides by W/F Stretches to Facilitate Bacterial Killing” (PLoS ONE, 2009).
Residues, ends and D or L forms follow the SMILES beside them. No end group written: not given here.

Key:
human leukocyte elastase = molecular target: T1, human leukocyte elastase (Homo sapiens, UniProt P08246); test: Protease sensitivity assay; format: in vitro ADME; conditions: peptide 1 µg, neutrophil elastase 0.4 µg, 30 µl, 3 hours 37°C, SDS-PAGE 16.5% Tris-Tricine, Coomassie
T1 construct: purchased Calbiochem (La Jolla, USA)
T1 sequence (P08246 30-267): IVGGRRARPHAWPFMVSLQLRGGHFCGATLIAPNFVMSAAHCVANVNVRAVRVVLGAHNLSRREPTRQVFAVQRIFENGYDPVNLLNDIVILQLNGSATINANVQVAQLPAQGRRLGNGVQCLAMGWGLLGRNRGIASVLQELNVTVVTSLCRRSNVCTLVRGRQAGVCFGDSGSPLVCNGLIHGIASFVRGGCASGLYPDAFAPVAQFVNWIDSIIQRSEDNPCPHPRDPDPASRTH
Experimental: (§1) Peptides (1 µg) were incubated at 37°C with S. aureus aureolysin (0.1 µg, 25000 units/mg), S. aureus V8 proteinase (0.1 µg, 2000 mU), both from BioCol GmbH (Potsdam, Germany), or neutrophil elastase (0.4 µg, 29 units/mg; Calbiochem (La Jolla, USA)) in a total volume of 30 µl for 3 hours. The materials were analyzed on 16.5% precast sodium dodecyl sulfate polyacrylamide (SDS-PAGE) Tris-Tricine gels (BioRad, Hercules, USA) and analyzed after staining with Coomassie Blue R-250 (Merck, Darmstadt, Germany).
(§2) Figure 5 (A) Protease sensitivity of peptides. KNK10 and KNK10-WWWWW were incubated with (+) or without (−) the S. aureus enzymes aureolysin (Aur), V8 proteinase (V8), or human leukocyte elastase (HLE), and analyzed by SDS-PAGE (16.5% Tris-Tricine gels). (B) Activities of peptides in an ex vivo skin infection model. Pig skin was inoculated with E. coli ATCC 25922 (upper panel) or S. aureus ATCC 29213 (lower panel). Peptides at 1 mM were added after an incubation time of 4 h. Bacteria were collected after 2 h and cfu determined (mean values are presented, n = 6). Note the logarithmic scale on the y-axis. (In Figure 5B, the difference between tagged and non-tagged peptide is statistically significant in all cases (P<0.002, one way ANOVA).)

S. aureus V8 proteinase = molecular target: T2, S. aureus V8 proteinase (Staphylococcus aureus, UniProt P0C1U8); format: in vitro ADME; conditions: peptide 1 µg, V8 proteinase 0.1 µg, 30 µl, 3 hours 37°C, SDS-PAGE 16.5% Tris-Tricine, Coomassie
T2 construct: purchased BioCol GmbH (Potsdam, Germany)
T2 sequence (P0C1U8 69-336): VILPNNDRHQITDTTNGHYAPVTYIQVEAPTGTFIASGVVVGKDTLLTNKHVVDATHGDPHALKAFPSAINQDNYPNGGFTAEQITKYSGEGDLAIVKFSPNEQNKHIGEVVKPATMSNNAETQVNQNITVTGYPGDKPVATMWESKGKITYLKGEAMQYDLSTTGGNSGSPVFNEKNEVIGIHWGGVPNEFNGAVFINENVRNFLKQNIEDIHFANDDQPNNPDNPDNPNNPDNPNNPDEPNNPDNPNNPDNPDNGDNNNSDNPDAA
Experimental: as §1, §2

S. aureus aureolysin = molecular target: T3, S. aureus aureolysin (Staphylococcus aureus, UniProt P81177); format: in vitro ADME; conditions: peptide 1 µg, aureolysin 0.1 µg, 30 µl, 3 hours 37°C, SDS-PAGE 16.5% Tris-Tricine, Coomassie
T3 construct: purchased BioCol GmbH (Potsdam, Germany)
T3 sequence (P81177 209-509): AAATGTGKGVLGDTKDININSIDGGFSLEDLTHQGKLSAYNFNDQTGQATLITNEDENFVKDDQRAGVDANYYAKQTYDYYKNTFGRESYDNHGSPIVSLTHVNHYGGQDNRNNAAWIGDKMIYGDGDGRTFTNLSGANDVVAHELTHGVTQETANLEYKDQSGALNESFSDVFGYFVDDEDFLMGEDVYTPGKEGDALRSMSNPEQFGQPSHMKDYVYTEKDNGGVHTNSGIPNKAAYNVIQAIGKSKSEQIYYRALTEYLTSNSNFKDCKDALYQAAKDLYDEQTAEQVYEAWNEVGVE
Experimental: as §1, §2

[1] = test system: Escherichia coli ATCC 25922; format: cell-based; conditions: ATCC 25922, 100
Experimental: (§3) Essentially as described earlier, [31] bacteria were grown to mid-logarithmic phase in 10 ml of full-strength (3% w/v) trypticase soy broth (TSB) (Becton-Dickinson, Cockeysville, USA). The microorganisms were then washed once with 10 mM Tris, pH 7.4. Subsequently, 4×10^6 bacterial colony forming units were added to 15 ml of the underlay agarose gel, consisting of 0.03% (w/v) TSB, 1% (w/v) low electroendosmosis type (EEO) agarose (Sigma-Aldrich, St. Louis, USA) and 0.02% (v/v) Tween 20 (Sigma-Aldrich, St. Louis, USA). The underlay was poured into a Ø 144 mm petri dish. After agarose solidification, 4 mm-diameter wells were punched and 6 µl of peptide with required concentration added to each well. Plates were incubated at 37°C for 3 hours to allow diffusion of the peptides. The underlay gel was then covered with 15 ml of molten overlay (6% TSB and 1% Low-EEO agarose in distilled H2O). […]
(§4) Figure 1 Antibacterial and hemolytic activity of peptides. (A) Antibacterial activity of PEPscreen peptides as assessed by radial diffusion assay (RDA) in the presence and absence of 0.15 M NaCl against E. coli ATCC 25922 and S. aureus ATCC 29213, as well as hemolysis. […] The absorbance of hemoglobin release was measured at 540 nm and is expressed as % of Triton X-100 induced hemolysis. […]

[2] = test system: Staphylococcus aureus ATCC 29213; format: cell-based; conditions: ATCC 29213, 100
Experimental: as §3, §4

| Compound | stability against proteolytic degradation (in words) (human leukocyte elastase) | stability against proteolytic degradation (in words) (S. aureus V8 proteinase) | stability against proteolytic degradation (in words) (S. aureus aureolysin) | clearance zone in RDA [1] | clearance zone in RDA [2] |
| --- | --- | --- | --- | --- | --- |
| CC[C@H](C)[C@H](NC(=O)[C@H](CCCCN)NC(=O)[C@H](CCC(=O)O)NC(=O)[C@H](CCCCN)NC(=O)[C@H](CO)NC(=O)[C@H](CCCCN)NC(=O)[C@H](CCCNC(=N)N)NC(=O)[C@H](Cc1ccccc1)NC(=O)[C@H](Cc1ccccc1)NC(=O)[C@H](CC(=O)O)NC(=O)CNC(=O)[C@H](CC(C)C)NC(=O)[C@@H](N)CC(C)C)C(=O)NCC(=O)N[C@@H](CCCCN)C(=O)N[C@@H](CCC(=O)O)C(=O)N[C@@H](Cc1ccccc1)C(=O)N[C@@H](CCCCN)C(=O)N[C@@H](CCCNC(=N)N)C(=O)N[C@H](C(=O)N[C@H](C(=O)N[C@@H](CCC(N)=O)C(=O)N[C@@H](CCCNC(=N)N)C(=O)N[C@H](C(=O)N[C@@H](CCCCN)C(=O)N[C@@H](CC(=O)O)C(=O)N[C@@H](Cc1ccccc1)C(=O)N[C@@H](CC(C)C)C(=O)N[C@@H](CCCNC(=N)N)C(=O)N[C@@H](CC(N)=O)C(=O)N[C@@H](CC(C)C)C(=O)N[C@H](C(=O)N1CCC[C@H]1C(=O)N[C@@H](CCCNC(=N)N)C(=O)N[C@H](C(=O)N[C@@H](CCC(=O)O)C(=O)N[C@@H](CO)C(=O)O)[C@@H](C)O)C(C)C)[C@@H](C)CC)C(C)C)[C@@H](C)CC [LL-37] | substantial degradation | substantial degradation | substantial degradation |  |  |
| KNKGKKNGKHWWWWW [KNK10-WWWWW] |  | good stability | good stability |  |  |
| KNKGKKNGKH [KNK10] |  | good stability | good stability |  |  |
| N[C@@H](Cc1c[nH]c2ccccc12)C(=O)N[C@@H](Cc1c[nH]c2ccccc12)C(=O)N[C@@H](Cc1c[nH]c2ccccc12)C(=O)O [WWW] (H-Trp-Trp-Trp-OH) |  |  |  | 0 mm | 0 mm |
